Patent publication US20190352276A1, “INHIBITORS OF BRUTON'S TYROSINE KINASE” (Joint Stock Company "Biocad", priority 2016, published 2019)
One block for each compound: values may come before it.

Tests used:
[1] = Chemical stability in artificial gastric fluid (SGF without enzymes); settings: 10 μM in SGF without enzymes, pH=1.4, 37° C.
Procedure: The initial candidate solution (10 mM in DMSO) was diluted with the working solution of SGF to the concentration of 10 μm (test solution). The test solution was incubated in a dry block heater at 37° C. We determined peak areas of the compounds corresponding to the start of the test (before incubating) and the end of the test (after incubating in a dry block heater at 37° C.) by HPLC using Agilent1200 chromatograph (Agilent, USA). We used gradient elution (1 mL/min flow rate). We determined amount of substance in the sample in % after incubation.
We evaluated the stability of the compounds.

[2] = General cytotoxicity on HepG2 cells (CC50; therapeutic index CC50 HepG2/IC50 Mino); assay type: cell-based; settings: human, HepG2 cells (hepatocellular carcinoma), 72 hours, Alamar Blue
Procedure: (§1) The CC50 values were determined in the test for General cytotoxicity on HepG2 cells (hepatocellular carcinoma, ATCC® HB-8065™). 2*10^4 cells (in 50 μl) per well were seeded in 96-well plates (Corning, #3599) in DMEM medium (PanEco, #S420p), after 24 h of incubation 150 μl of candidate compounds were added to each well in the range of final concentrations from 200 μM to 4 μM and the plate was incubated in a total volume of 200 μl for 72 hours. Viability of the cells was assessed using Alamar Blue dye (Invitrogen, #DAL 1100). CC50 was determined similarly (table 10).
(§2) The relationship between toxic (CC50) and a therapeutic (IC50) effects of the dose is the therapeutic index, which can be expressed as the ratio between CC50 (HepG2) (general cytotoxicity of the candidate) and IC50 (Mino) (antiproliferative activity on the target cells): […]

[3] = tested on: HepG2 cells (hepatocellular carcinoma); assay: as above; assay type: cell-based; settings: therapeutic index
Procedure: as §1, §2

[4] = tested on: Mino (mantle cell lymphoma); assay: Antiproliferative activity, Mino cells (Alamar Blue); assay type: cell-based; settings: Homo sapiens
Procedure: (§3) Antiproliferative activity of BTK inhibitors was measured in cell-based bioassay on B-cells cultures: Mino (mantle cell lymphoma, ATCC® CRL-3000™), Z-138 (mantle cell lymphoma, ATCC® CRL-3001™) and DOHH2 (follicular lymphoma, Creative Bioarray CSC-C0219) using cell viability reagent Alamar Blue (Invitrogen, #DAL 1100). Cells were cultured in 10% FB S-supplemented (HyClone, #SH3008803/Gibco, #16140-071) RPMI-1640 (PanEco, #S330p) for at least 1 passage after thawing, washed with PBS and passaged in 96-well culture plates (Corning, #3599) with growth medium with 10% FBS (HyClone, #SH3008803/Gibco, #16140-071) and antibiotic (50 μg/ml of gentamicin (Biolot, #1.3.16))≈3*10^4 cells in 50 μl of medium per well.
(§4) The compounds were dissolved in DMSO and diluted with the assay medium to final concentrations ranging from […]. 150 μl of each diluted compound were then added to each well (final concentration of DMSO was less than 1%) and incubated at 37° C. in an incubator under 5% of CO2 for 72 h. After incubation, 20 μl of Alamar Blue reagent (Invitrogen, #DAL1100) were added to each well. The plates were shaked on an orbital shaker (Biosan, Latvia) and then incubated for 14-16 hours at 37° C. in the incubator.
(§5) The number of living cells were estimated, measuring the fluorescence signal at the excitation wavelength (REx) of 540 nm and the emission wavelength (λEm) of 590 nm on a microplate reader (Tecan Infinite M200Pro, Switzerland).
(§6) For each compound, IC50 was calculated using Magellan 7.2 software (Tecan, Switzerland) approximating experimental points by four-parameter logistic model with the optimization by Levenberg-Marquardt.

[5] = tested on: Z-138 (mantle cell lymphoma); assay: Antiproliferative activity, Z-138 cells (Alamar Blue); assay type: cell-based; settings: Homo sapiens
Procedure: as §3, §4, §5, §6

[6] = Table 10, average of several tests
[7] = Table 10, 72 h, average of several tests

SMILES: CC#CC(=O)N1CC(n2nc(-c3ccc(Oc4ccncc4)cc3)c3cncc(Cl)c32)C1 [BCD-BTK - 281, 1-(3-(7-chloro-3-(4-(pyridin-4-yloxy)phenyl)-1H-pyrazolo[4,3-c]pyridin-1-yl)azetidin-1-yl)but-2-yn-1-one]
Amount of substance in the sample in % (chemical stability) [1]: 100%

SMILES: C=CC(=O)N1CC(n2nc(-c3ccc(Oc4ccncc4)cc3)c3cncc(Cl)c32)C1 [BCD-BTK - 282, 1-(3-(7-chloro-3-(4-(pyridin-4-yloxy)phenyl)-1H-pyrazolo[4,3-c]pyridin-1-yl)azetidin-1-yl)prop-2-en-1-one]
Amount of substance in the sample in % (chemical stability) [1]: 100%

SMILES: CC#CC(=O)N1CC[C@@H](Cn2nc(-c3ccc(C(=O)Nc4ccccn4)cc3)c3cncc(Cl)c32)C1 [BCD-BTK - 286, (R)-4-(1-((1-(but-2-ynoyl)pyrrolidin-3-yl)methyl)-7-chloro-1H-pyrazolo[4,3-c]pyridin-3-yl)-N-(pyridin-2-yl)benzamide]
Amount of substance in the sample in % (chemical stability) [1]: 100%

SMILES: CC#CC(=O)N1CC[C@H](Cn2nc(-c3ccc(C(=O)Nc4ccccn4)cc3)c3cncc(Cl)c32)C1 [BCD-BTK - 287, (S)-4-(1-((1-(but-2-ynoyl)pyrrolidin-3-yl)methyl)-7-chloro-1H-pyrazolo[4,3-c]pyridin-3-yl)-N-(pyridin-2-yl)benzamide]
Amount of substance in the sample in % (chemical stability) [1]: 100%

SMILES: CC#CC(=O)N1CCC[C@@H](n2nc(-c3ccc(C(=O)Nc4ccccn4)cc3)c3c(N)ncc(Cl)c32)C1 [BCD-BTK - 295, (R)-4-(4-amino-1-(1-(but-2-ynoyl)piperidin-3-yl)-7-chloro-1H-pyrazolo[4,3-c]pyridin-3-yl)-N-(pyridin-2-yl)benzamide]
Amount of substance in the sample in % (chemical stability) [1]: 89.5%

SMILES: C=CC(=O)N1CCC[C@@H](n2nc(-c3ccc(-n4ccc(=O)cc4)cc3)c3c(N)ncc(Cl)c32)C1 [BCD-BTK-9, (R)-1-(4-(1-(1-acryloylpiperidin-3-yl)-4-amino-7-chloro-1H-pyrazolo[4,3-c]pyridin-3-yl)phenyl)pyridin-4(1H)-one]
CC50 at 72 h [2, 6]: > 100 µM | CC50 (HepG2)/IC50 (Mino) ([3]; Table 10): >4.25 | IC50 [4, 7]: 23.5 µM | Amount of substance in the sample in % (chemical stability) [1]: 100.0% | IC50 [5, 7]: 44.1 µM

SMILES: C=CC(=O)N1CC(Cn2nc(-c3ccc(C(=O)Nc4ccccn4)cc3)c3cncc(Cl)c32)C1 [BCD-BTK-276, 4-(7-chloro-1-{[1-(prop-2-enoyl)azetidin-3-yl]methyl}-1H-pyrazolo[4,3-c]pyridin-3-yl)-N-(pyridin-2-yl)benzamide]
Amount of substance in the sample in % (chemical stability) [1]: 100%

SMILES: CC#CC(=O)N1CC(n2nc(-c3ccc(Oc4ccncc4)cc3)c3cncc(Cl)c32)C1 [BCD-BTK-281, 1-(3-(7-chloro-3-(4-(pyridin-4-yloxy)phenyl)-1H-pyrazolo[4,3-c]pyridin-1-yl)azetidin-1-yl)but-2-yn-1-one]
CC50 at 72 h [2, 6]: 15.8 µM | CC50 (HepG2)/IC50 (Mino) ([3]; Table 10): 2.81 | IC50 [4, 7]: 5.63 µM | IC50 [5, 7]: 4.67 µM

SMILES: C=CC(=O)N1CC(n2nc(-c3ccc(Oc4ccncc4)cc3)c3cncc(Cl)c32)C1 [BCD-BTK-282, 1-(3-(7-chloro-3-(4-(pyridin-4-yloxy)phenyl)-1H-pyrazolo[4,3-c]pyridin-1-yl)azetidin-1-yl)prop-2-en-1-one]
CC50 at 72 h [2, 6]: 9.45 µM | CC50 (HepG2)/IC50 (Mino) ([3]; Table 10): 2.35 | IC50 [4, 7]: 4.02 µM | IC50 [5, 7]: 4.3 µM

SMILES: C=CC(=O)N1CCC[C@@H](n2nc(-c3ccc(Oc4ccccc4)cc3)c3c(N)ncnc32)C1 [Ibrutinib, ibrutinib, reference compound]
CC50 at 72 h ([2]; Table 11): 54.9 µM | CC50 (HepG2)/IC50 (Mino) ([3]; Table 11): 5.98 | IC50 ([4]; Table 11, 72 h): 9.18 µM | IC50 ([5]; Table 11, 72 h): 15.1 µM

Further lines, with some results ahead:

Amount of substance in the sample in % (chemical stability) [1]: 100%
SMILES: C=CC(=O)N1CCC[C@@H](n2nc(-c3cnc(C(=O)Nc4cc(C(F)(F)CCC)ccn4)nc3)c3cncc(Cl)c32)C1 [BCD-BTK - 292, (R)-5-(1-(1-acryloylpiperidin-3-yl)-7-chloro-1H-pyrazolo[4,3-c]pyridin-3-yl)-N-(4-(1,1-difluorobutyl)pyridin-2-yl)pyrimidine-2-carboxamide]

Amount of substance in the sample in % (chemical stability) [1]: 98.4%
SMILES: C=CC(=O)N1CCC[C@@H](n2nc(-c3cnc(C(=O)Nc4cc(C(F)(F)CC)ccn4)nc3)c3cncc(Cl)c32)C1 [BCD-BTK - 293, (R)-5-(1-(1-acryloylpiperidin-3-yl)-7-chloro-1H-pyrazolo[4,3-c]pyridin-3-yl)-N-(4-(1,1-difluoropropyl)pyridin-2-yl)pyrimidine-2-carboxamide]

Amount of substance in the sample in % (chemical stability) [1]: 100%
SMILES: C=CC(=O)N1CCC[C@@H](n2nc(-c3ccc(C(=O)Nc4cccc(F)n4)cc3)c3cncc(Cl)c32)C1 [BCD-BTK-225, (R)-4-(1-(1-acryloylpiperidin-3-yl)-7-chloro-1H-pyrazolo[4,3-c]pyridin-3-yl)-N-(6-fluoropyridin-2-yl)benzamide]

Amount of substance in the sample in % (chemical stability) [1]: 100%
SMILES: C=CC(=O)N1CCC[C@@H](n2nc(-c3ccc(C(=O)Nc4ccc(F)cn4)cc3)c3cncc(C#N)c32)C1 [BCD-BTK-227, (R)-4-(1-(1-acryloylpiperidin-3-yl)-7-cyano-1H-pyrazolo[4,3-c]pyridin-3-yl)-N-(5-fluoropyridin-2-yl)benzamide]

Amount of substance in the sample in % (chemical stability) [1]: 100%
SMILES: C=CC(=O)N1CCC[C@@H](n2nc(-c3ccc(C(=O)Nc4cc(C(F)(F)F)ccn4)cc3)c3cncc(F)c32)C1 [BCD-BTK-245, (R)-4-(1-(1-acryloylpiperidin-3-yl)-7-fluoro-1H-pyrazolo[4,3-c]pyridin-3-yl)-N-(4-(trifluoromethyl)pyridin-2-yl)benzamide]

IC50 [4, 7]: 28.8 µM | IC50 [5, 7]: > 50 µM
SMILES: C=CC(=O)N1CCC[C@@H](n2nc(-c3ccc(C(=O)Nc4ncccc4F)cc3)c3cncc(F)c32)C1 [BCD-BTK-249, (R)-4-(1-(1-acryloylpiperidin-3-yl)-7-fluoro-1H-pyrazolo[4,3-c]pyridin-3-yl)-N-(3-fluoropyridin-2-yl)benzamide]
CC50 at 72 h [2, 6]: ~100 µM | CC50 (HepG2)/IC50 (Mino) ([3]; Table 10): >3.47

Amount of substance in the sample in % (chemical stability) [1]: 100%
SMILES: CC#CC(=O)N1CC[C@@H](n2nc(-c3ccc(C(=O)Nc4ccccn4)cc3)c3cncc(Cl)c32)C1 [BCD-BTK-262, (R)-4-(1-(1-(but-2-ynoyl)pyrrolidin-3-yl)-7-chloro-1H-pyrazolo[4,3-c]pyridin-3-yl)-N-(pyridin-2-yl)benzamide]

Amount of substance in the sample in % (chemical stability) [1]: 100%
SMILES: CC#CC(=O)N1CC[C@H](n2nc(-c3ccc(C(=O)Nc4ccccn4)cc3)c3cncc(Cl)c32)C1 [BCD-BTK-271, (S)-4-(1-(1-(but-2-ynoyl)pyrrolidin-3-yl)-7-chloro-1H-pyrazolo[4,3-c]pyridin-3-yl)-N-(pyridin-2-yl)benzamide]

Amount of substance in the sample in % (chemical stability) [1]: 100%
SMILES: C=CC(=O)N1CC[C@@H](n2nc(-c3ccc(C(=O)Nc4ccccn4)cc3)c3cncc(Cl)c32)C1 [BCD-BTK-275, (R)-4-(1-(1-acryloylpyrrolidin-3-yl)-7-chloro-1H-pyrazolo[4,3-c]pyridin-3-yl)-N-(pyridin-2-yl)benzamide]

Amount of substance in the sample in % (chemical stability) [1]: 100%
SMILES: C=CC(=O)N1CCC[C@@H](Cn2nc(-c3ccc(C(=O)Nc4ccccn4)cc3)c3cncc(Cl)c32)C1 [BCD-BTK-279, (R)-4-(1-((1-acryloylpiperidin-3-yl)methyl)-7-chloro-1H-pyrazolo[4,3-c]pyridin-3-yl)-N-(pyridin-2-yl)benzamide]
